Source: patent publication US20090082266A1, “CONJUGATE OF WATER-SOLUBLE HYALURONIC ACID MODIFICATION PRODUCT WITH GLP-A ANALOGUE” (priority 2005, published 2009)

Legend:
[1] = tested on: BKS. Cg −+Lepr^db/+Lepr^db/Jcl mice; assay: Oral glucose tolerance test, subcutaneous administration (Example 6-5); assay type: in vivo; details: 3000 μg/kg sc, AUC up to 2 hours, mean
Experimental: After 8 weeks old male BKS. Cg −+Lepr^db/+Lepr^db/Jcl mice (Japan CLEA Co. Ltd.) were fasted overnight to 24 hours, the HA-GLP-1 analogue 2 conjugate solution, which was obtained in Example 6-2 and diluted with solvent Z (at a dose as peptide, 300 μg/kg), or solvent Z was subcutaneously administered to the mice. After 6, 24 or 48 hours of the subcutaneous administration, 50% glucose solution (Otsuka Pharamaceutical Co. Ltd.) was orally administered at a dose of 3 g glucose/kg. […] After 2 minutes or 4 hours and 2 minutes of the subcutaneous administration (in the case of solvent Z, after 1 or 5 hours) 50% glucose solution was orally administered at a dose of 3 g glucose/kg. Tests were carried out on groups consisting of 6 mice per group.
(§1) Before the glucose administration (0 hour), 0.5, 1 and 2 hours after the administration, blood was collected from the tail, and the blood glucose level was measured by an enzymatic assay (hexokinase method; Reagent, Autosera S GLU (Daiichi Pure Chemicals Co. Ltd.); Instrument, BioMajesty JCA-BM1250 (JEOL Co. Ltd.)).
The blood glucose lowering rate was calculated according to the formula described in Example 5-4.

[2] = in vivo, iv; cited from earlier work
[3] = tested on: BKS. Cg −+Lepr^db/+Lepr^db/Jcl mice; assay: Oral glucose tolerance test, intravenous administration (Example 5-4); assay type: in vivo; details: glucose 3 g/kg orally 1 minute later, AUC up to 4 hours, mean
Experimental: After 8 weeks old male BKS. Cg −+Lepr^db/+Lepr^db/Jcl mice (Japan CLEA Co. Ltd.) were fasted overnight, the HA-GLP-1 analogue 1 conjugate solution, which was obtained in Example 5-2 and diluted with solvent Z (at doses as peptide, 1.5 μg/kg, 15 μg/kg or 150 μg/kg), or solvent Z was intravenously administered to the mice. After 1 minute of the intravenous administration, 50% glucose solution (Otsuka Pharamaceutical Co. Ltd.) was orally administered at a dose of 3 g glucose/kg. […] After 1 minute of the intravenous administration, 50% glucose solution was orally administered at a dose of 3 g glucose/kg. Tests were carried out on groups consisting of 6 mice per group.
as §1, with “0.5, 1, 2” for “0.5, 1”, “and 4” for “and 2”
The blood glucose lowering rate was calculated according to the following formula.

Substance	Blood glucose lowering rate (%) ([1]; glucose 3 g/kg orally 2 Minutes after administration)	Blood glucose lowering rate (%) ([1]; glucose 3 g/kg orally 4 Hour 2 Minutes after administration)	half life [2] [min]	Blood glucose lowering rate (%) ([3]; 150 μg/kg iv (conjugate: as peptide))	Blood glucose lowering rate (%) ([3]; 1500 μg/kg iv)
GLP-1 analogue 0: variant of native GLP-1 (human, 7-37) in which the second (position 8) alanine was converted to glycine (HGEGTFTSDVSSYLEGQAAKEFIAWLVKGRG; Glucagon-like peptide 1(7-37); UniProt P01275 98-128, looked up, variant A8G)	102	18	1 to 5	–	–
GLP-1: native GLP-1 (Human, 7-37; Peptide Institute, Inc.)	–	–	–	15	60
